pEC50, pIC50: −log10 of the molar value.

The target of the first test is T1, GK-GKRP (Homo sapiens, UniProt Q14397).
T1 sequence (Q14397 1-625): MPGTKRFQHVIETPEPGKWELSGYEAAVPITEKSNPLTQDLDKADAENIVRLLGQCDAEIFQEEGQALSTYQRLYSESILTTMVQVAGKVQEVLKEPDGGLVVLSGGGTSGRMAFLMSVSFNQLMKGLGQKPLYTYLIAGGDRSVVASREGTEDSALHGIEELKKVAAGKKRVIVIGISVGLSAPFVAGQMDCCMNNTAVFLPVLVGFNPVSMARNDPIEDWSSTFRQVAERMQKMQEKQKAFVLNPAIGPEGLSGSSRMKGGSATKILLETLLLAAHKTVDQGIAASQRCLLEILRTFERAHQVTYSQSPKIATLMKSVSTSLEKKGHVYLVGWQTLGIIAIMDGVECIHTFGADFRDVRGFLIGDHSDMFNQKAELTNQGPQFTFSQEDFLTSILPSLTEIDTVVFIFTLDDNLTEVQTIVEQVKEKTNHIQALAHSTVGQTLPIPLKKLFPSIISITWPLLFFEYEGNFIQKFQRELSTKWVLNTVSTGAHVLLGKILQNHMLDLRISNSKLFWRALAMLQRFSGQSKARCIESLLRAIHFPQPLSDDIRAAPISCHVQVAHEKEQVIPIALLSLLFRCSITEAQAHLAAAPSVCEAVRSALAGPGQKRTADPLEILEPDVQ
Nature of the test: biochemical. As to conditions: GK-GKRP IC50 (Binding).
As to `CC(C)CS(=O)(=O)N(C[C@H]1CN(S(=O)(=O)c2cccs2)CCN1c1ccc(C(C)(O)C(F)(F)F)cc1)c1cccnc1` (mixture of isomers) [Example 253, 2-methyl-N-3-pyridinyl-N-(((2R)-4-(2-thiophenylsulfonyl)-1-(4-(2,2,2-trifluoro-1-hydroxy-1-methylethyl)phenyl)-2-piperazinyl)methyl)-1-propanesulfonamide], the pIC50 (in general, −log10 of the IC50, conventionally taken in molar units) is 7.46.

The molecule `C[C@H]1COCC(=O)N1C[C@H]1CN(S(=O)(=O)c2cccs2)CCN1c1ccc([C@](C)(O)C(F)(F)F)cc1` [Example 272, (S)-5-methyl-4-(((S)-4-(tiophen-2-ylsulfonyl)-1-(4-((S)-1,1,1-trifluoro-2-hydroxypropan-2-yl)phenyl)piperazin-2-yl)methyl)morpholin-3-one] gave a pIC50 of 6.66. In turn, `Nc1ccc(S(=O)(=O)N2CCN(c3ccc(C(O)(C(F)(F)F)C(F)(F)F)cc3)[C@@H](CS(=O)(=O)c3ccccc3)C2)cn1` [Example 273, 2-(4-((2R)-4-((6-amino-3-pyridinyl)sulfonyl)-2-((phenylsulfonyl)methyl)-1-piperazinyl)phenyl)-1,1,1,3,3,3-hexafluoro-2-propanol] had a pIC50 of 7.31. `CC(c1ccccc1)N(C[C@H]1CN(S(=O)(=O)c2cccs2)CCN1c1ccc(C(C)(O)C(F)(F)F)cc1)S(C)(=O)=O` (mixture of isomers) [Example 252, N-(1-phenylethyl)-N-(((2R)-4-(2-thiophenylsulfonyl)-1-(4-(2,2,2-trifluoro-1-hydroxy-1-methylethyl)phenyl)-2-piperazinyl)methyl)methanesulfonamide] gave a pIC50 of 6.17.

In the case of `CC#CC1CN(S(=O)(=O)c2ccc(N)nc2)CCN1c1ncc(C(C)(O)C(F)(F)F)cn1` (single isomer, unassigned) [Example 251 Second Eluting Peak from Set One, 2-(2-(4-((6-amino-3-pyridinyl)sulfonyl)-2-(1-propyn-1-yl)-1-piperazinyl)-5-pyrimidinyl)-1,1,1-trifluoro-2-propanol], the pIC50 was 8.05. As to `CC(O)(c1ccc(N2CCN(S(=O)(=O)c3cccs3)C[C@@H]2CN2C(=O)NC(=O)C23CCC3)cc1)C(F)(F)F` (mixture of isomers) [Example 236, 5-(((2S)-4-(2-thiophenylsulfonyl)-1-(4-(2,2,2-trifluoro-1-hydroxy-1-methylethyl)phenyl)-2-piperazinyl)methyl)-5,7-diazaspiro[3.4]octane-6,8-dione], the pIC50 was 6.42. On the same count and under the same terms, the figure for `CC1(C)C(=O)NCCN1C[C@H]1CN(S(=O)(=O)c2ccc(N)nc2)CCN1c1ncc(C(O)(C(F)(F)F)C(F)(F)F)cn1` [Example 235, 4-(((2S)-4-((6-amino-3-pyridinyl)sulfonyl)-1-(5-(2,2,2-trifluoro-1-hydroxy-1-(trifluoromethyl)ethyl)-2-pyrimidinyl)-2-piperazinyl)methyl)-3,3-dimethyl-2-piperazinone] is 8.10; for `CC(O)(c1ccc(N2CCN(S(=O)(=O)c3cccs3)C[C@@H]2CN2CCNC(C(F)(F)F)C2)cc1)C(F)(F)F` (single isomer, unassigned) [Example 270 Peak 1] it is 6.60. On to `CC#CC1CN(S(=O)(=O)c2ccc(N)nc2)CCN1c1ncc(C(C)(O)C(F)(F)F)cn1` (single isomer, unassigned) [Example 251 Second Eluting Peak from Set Two, 2-(2-(4-((6-amino-3-pyridinyl)sulfonyl)-2-(1-propyn-1-yl)-1-piperazinyl)-5-pyrimidinyl)-1,1,1-trifluoro-2-propanol], for which the pIC50 was 4.82. In turn, `CC#CC1CN(S(=O)(=O)c2cnc(N)c(F)c2)CCN1c1ccc(C(O)(C(F)(F)F)C(F)(F)F)cc1` (racemic) [Example 250, 2-(4-(4-((6-amino-5-fluoro-3-pyridinyl)sulfonyl)-2-(1-propyn-1-yl)-1-piperazinyl)phenyl)-1,1,1,3,3,3-hexafluoro-2-propanol] gave a pIC50 of 7.82. The same measure, in the same setting: the figure for `Nc1ccc(S(=O)(=O)c2ccc(-c3ncc(C(O)(C(F)(F)F)C(F)(F)F)cn3)cn2)cn1` [Example 267, 2-(2-(6-((6-amino-3-pyridinyl)sulfonyl)-3-pyridinyl)-5-pyrimidinyl)-1,1,1,3,3,3-hexafluoro-2-propanol] is 6.99. The same measure, in the same setting: the figure for `CC#CC1CN(S(=O)(=O)c2ccc(N)nc2)CCN1c1ncc(C(C)(O)C(F)(F)F)cn1` (single isomer, unassigned) [Example 251 First Eluting Peak from Set Two, 2-(2-(4-((6-amino-3-pyridinyl)sulfonyl)-2-(1-propyn-1-yl)-1-piperazinyl)-5-pyrimidinyl)-1,1,1-trifluoro-2-propanol] is 4.95. Still for that read-out and setting: the figure for `CC(O)(c1ccc(N2CCN(S(=O)(=O)c3cccs3)C[C@@H]2CN(c2ccc(F)cc2)S(C)(=O)=O)cc1)C(F)(F)F` (mixture of isomers) [Example 255, N-(4-fluorophenyl)-N-(((2R)-4-(2-thiophenylsulfonyl)-1-(4-(2,2,2-trifluoro-1-hydroxy-1-methylethyl)phenyl)-2-piperazinyl)methyl)methanesulfonamide] is 8.70.

On to `CC#CC1CN(S(=O)(=O)c2ccc(N)nc2)CCN1c1ncc(C(C)(O)C(F)(F)F)cn1` (single isomer, unassigned) [Example 251 First Eluting Peak from Set One, 2-(2-(4-((6-amino-3-pyridinyl)sulfonyl)-2-(1-propyn-1-yl)-1-piperazinyl)-5-pyrimidinyl)-1,1,1-trifluoro-2-propanol], for which the pIC50 is 7.82. On the same count and under the same terms, with `CC(O)CC1CN(S(=O)(=O)c2ccc(N)nc2)CCN1c1ncc(C(O)(C(F)(F)F)C(F)(F)F)cn1` (stereo not shown) [Example 244, 2-(2-(4-((6-amino-3-pyridinyl)sulfonyl)-2-(2-hydroxypropyl)-1-piperazinyl)-5-pyrimidinyl)-1,1,1,3,3,3-hexafluoro-2-propanol] the figure was 6.13.

Take `CC#CC1CN(S(=O)(=O)c2nccs2)CCN1c1ccc(C(O)(C(F)(F)F)C(F)(F)F)cc1` (stereo not shown) [Example 248]: the pIC50 was 7.82. Against the preceding molecule, the pIC50 is 1.69 log units higher. Still for that read-out and setting: the figure for `CC#Cc1cc(C(O)(C(F)(F)F)C(F)(F)F)ccc1N1CCN(S(=O)(=O)c2cccs2)CC1` [Example 262, 1,1,1,3,3,3-hexafluoro-2-(3-(1-propyn-1-yl)-4-(4-(2-thiophenylsulfonyl)-1-piperazinyl)phenyl)-2-propanol] is 6.08. Molecule `CC(O)(c1ccc(N2CCN(S(=O)(=O)c3cccs3)C[C@@H]2CN2CCNC(C(F)(F)F)C2)cc1)C(F)(F)F` (single isomer, unassigned) [Example 270 Peak 2] had a pIC50 of 6.33. The same measure, in the same setting: the figure for `CC#C[C@H]1CN(S(=O)(=O)c2ccccc2)CCN1c1ccc(C(O)(C(F)(F)F)C(F)(F)F)cc1` [Example 247, 1,1,1,3,3,3-hexafluoro-2-(4-((2S)-4-(phenylsulfonyl)-2-(1-propyn-1-yl)-1-piperazinyl)phenyl)-2-propanol] is 7.68. Still for that read-out and setting: with `CC#CC1CN(S(=O)(=O)c2nnc(N)s2)CCN1c1ccc(C(O)(C(F)(F)F)C(F)(F)F)cc1` (racemic) [Example 249, 2-(4-(4-((5-amino-1,3,4-thiadiazol-2-yl)sulfonyl)-2-(1-propyn-1-yl)-1-piperazinyl)phenyl)-1,1,1,3,3,3-hexafluoro-2-propanol] the figure was 6.95. On the same count and under the same terms, with `CC(=O)N(C[C@H]1CN(S(=O)(=O)c2cccs2)CCN1c1ccc(C(C)(O)C(F)(F)F)cc1)c1ccc(F)cc1` (mixture of isomers) [Example 256, N-(4-fluorophenyl)-N-(((2S)-4-(2-thiophenylsulfonyl)-1-(4-(2,2,2-trifluoro-1-hydroxy-1-methylethyl)phenyl)-2-piperazinyl)methyl)acetamide] the figure was 7.64; with `CC(O)(c1ccc(N2CCN(S(=O)(=O)c3cccs3)C[C@@H]2CNS(=O)(=O)c2ccc(F)cc2)cc1)C(F)(F)F` (mixture of isomers) [Example 254, 4-fluoro-N-(((2S)-4-(2-thiophenylsulfonyl)-1-(4-(2,2,2-trifluoro-1-hydroxy-1-methylethyl)phenyl)-2-piperazinyl)methyl)benzenesulfonamide], 6.49. Take `Nc1ccc(S(=O)(=O)N2CCN(c3ncc(C(O)(C(F)(F)F)C(F)(F)F)cn3)[C@@H](CN3C4CCC3COC4)C2)cn1` [Example 271, 2-(2-((2S)-4-((6-amino-3-pyridinyl)sulfonyl)-2-(3-oxa-8-azabicyclo[3.2.1]oct-8-ylmethyl)-1-piperazinyl)-5-pyrimidinyl)-1,1,1,3,3,3-hexafluoro-2-propanol]: the pIC50 is 8.52. This pIC50 lies 2.03 log units higher than the previous one. On the same count and under the same terms, with `CC#CC1CN(S(=O)(=O)c2ccc(N)nc2)CCN1c1ncc(C(C)(O)C(F)(F)F)cn1` (mixture of isomers) [Example 251, 2-(2-(4-((6-amino-3-pyridinyl)sulfonyl)-2-(1-propyn-1-yl)-1-piperazinyl)-5-pyrimidinyl)-1,1,1-trifluoro-2-propanol] the figure was 7.44; with `CC(O)(c1cnc(-c2ccc(S(=O)(=O)c3ccc(N)nc3)cc2)nc1)C(F)(F)F` (racemic) [Example 265, 2-(2-(4-((6-amino-3-pyridinyl)sulfonyl)phenyl)-5-pyrimidinyl)-1,1,1-trifluoro-2-propanol], 6.64.

The target in a further test is T1, GK-GKRP. Nature of the test: biochemical.
Details: not given
For the molecule `CC(O)(c1ccc(N2CCN(S(=O)(=O)c3cccs3)C[C@@H]2CN2C(=O)NC(=O)C23CCC3)cc1)C(F)(F)F` (mixture of isomers) [Example 236, 5-(((2S)-4-(2-thiophenylsulfonyl)-1-(4-(2,2,2-trifluoro-1-hydroxy-1-methylethyl)phenyl)-2-piperazinyl)methyl)-5,7-diazaspiro[3.4]octane-6,8-dione], the pEC50 – broadly, −log10 of the EC50, conventionally taken in molar units – was 6.44.

In turn, `CC1(C)C(=O)NCCN1C[C@H]1CN(S(=O)(=O)c2ccc(N)nc2)CCN1c1ncc(C(O)(C(F)(F)F)C(F)(F)F)cn1` [Example 235, 4-(((2S)-4-((6-amino-3-pyridinyl)sulfonyl)-1-(5-(2,2,2-trifluoro-1-hydroxy-1-(trifluoromethyl)ethyl)-2-pyrimidinyl)-2-piperazinyl)methyl)-3,3-dimethyl-2-piperazinone] had a pEC50 of 7.89.

`Nc1ccc(S(=O)(=O)c2ccc(-c3ncc(C(O)(C(F)(F)F)C(F)(F)F)cn3)cn2)cn1` [Example 267, 2-(2-(6-((6-amino-3-pyridinyl)sulfonyl)-3-pyridinyl)-5-pyrimidinyl)-1,1,1,3,3,3-hexafluoro-2-propanol] had a negative-log EC50 (pEC50) of 6.95.
